Measurements as given in patent US20020007060A1, “Reverse hydroxamate inhibitors of matrix metalloproteinases” (priority 1998, published 2002).

Legend:
[1] = biological target: T1, Recombinant truncated stromelysin (human sequence) (Homo sapiens, UniProt P08254); assay: Determination of Stromelysin Inhibition; type: biochemical; details: cleavage of thiopeptide ester substrate Ac-Pro-Leu-Gly-[2-mercapto-4-methyl-pentanoyl]-Leu-Gly-OEt, DTNB read at 405 nm, 30 minute assay at ambient temperature, 50 mM MES/NaOH 6.5
T1 construct: made in house; host or cells: E. coli
Protocol: The efficacy of the compounds of this invention as matrix metalloproteinase inhibitors was determined by measuring the inhibition of stromelysin. The inhibition of stromelysin by the compounds of this invention was determined as follows: Recombinant truncated stromelysin (human sequence) produced in E. coli was prepared by expression and purification of the protein as described by Ye et al. (Biochemistry, 1992, 31, 11231-11235, which is incorporated herein by reference). The enzyme was assayed by its cleavage of the thiopeptide ester substrate Ac-Pro-Leu-Gly-[2-mercapto-4-methyl-pentanoyl]-Leu-Gly-OEt as described by Weingarten and Feder (Anal. Biochem., 1985, 147, 437-440 (1985), which is incorporated herein by reference) as a substrate of vertebrate collagenase. The reported conditions were modified to allow assays to be carried out in a microtiter plate. Upon hydrolysis of the thioester bond, the released thiol group reacted rapidly with 5,5′-dithio-bis(2-nitrobenzoic acid) (DTNB) to produce a yellow color which was measured by a microtiter plate reader set at 405 nm. The rates of cleavage of the substrate by stromelysin in the presence or absence of inhibitors were measured in a 30 minute assay at ambient temperature. Solutions of the compounds in DMSO were prepared, and these were diluted at various concentrations into the assay buffer (50 mM MES/NaOH 6.5 with 10 mM CaCl2 and 0.2% Pluronic F-68), which was also used for dilution of the enzyme and substrate. The potency of the compounds [IC50] was calculated from the inhibition/inhibitor concentration data.

T1 sequence (P08254 100-272 limits assumed): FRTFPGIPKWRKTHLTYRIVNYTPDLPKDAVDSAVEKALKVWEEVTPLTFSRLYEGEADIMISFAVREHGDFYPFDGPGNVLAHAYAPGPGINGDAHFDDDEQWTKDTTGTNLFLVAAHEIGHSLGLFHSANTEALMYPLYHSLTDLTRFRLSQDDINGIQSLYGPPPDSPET

IC50 [1] [nM]	melting point [°C]	Structure (SMILES)
17	68 to 70	CN1C(=O)N(CCC(COc2ccc(-c3ccc(C#N)cc3)cc2)N(O)C=O)C(=O)C1(C)C (racemic) [Example 5, (±)-N-[1-[[(4′-cyano-[1,1′-biphenyl]-4-yl)oxy]methyl]-3-(3,4,4-trimethyl-2,5-dioxoimidazolidiny-1-yl)propyl]-N-hydroxyformamide]
9.1	65 to 67	CN1C(=O)N(CC(COc2ccc(-c3ccc(C#N)cc3)cc2)N(O)C=O)C(=O)C1(C)C (racemic) [Example 4, (±)-N-[1-[[(4′-cyano-[1,1′-biphenyl]-4-yl)oxy]methyl]-2-(3,4,4-trimethyl-2,5-dioxoimidazolidin-1-yl)ethyl]-N-hydroxyformamide]
	203 to 205	CN1C(=O)N(CC(COc2ccc(-c3ccc(S(N)(=O)=O)cc3)cc2)N(O)C=O)C(=O)C1(C)C (centres unmarked) [Example 114, N-[1-[[[4′-(aminosulfonyl)[1,1′-biphenyl]-4-yl]oxy]methyl]-2-(3,4,4-trimethyl-2,5-dioxo-1-imidazolidinyl)ethyl]-N-hydroxyformamide]

Further lines, the compound ahead of its results:

Structure (SMILES)	IC50 [1] [nM]	melting point [°C]
CC(C)CC(COc1ccc(-c2ccc(C#N)cc2)cc1)N(O)C=O (racemic) [Example 7, (±)-N-[1-[[(4′-cyano-[1,1′-biphenyl]-4-yl)oxy]methyl]-3-methylbutyl]-N-hydroxyformamide]	120	112 to 113
CN1C(=O)N(CC(CS(=O)(=O)c2ccc(Oc3ccc(C(F)(F)F)cc3)cc2)N(O)C=O)C(=O)C1(C)C (racemic) [Example 153, (±)-N-[1-[(2,5-dioxo-3,4,4-trimethyl-1-imidazolidinyl)methyl]-2-[[4-[4-(trifluoromethyl)phenoxy]phenyl]sulfonyl]ethyl]-N-hydroxyformamide]		141 to 143
